Test results from ChEMBL document CHEMBL6134864, “Discovery of FLT3-ITD Inhibitor Clifutinib: A Novel Biphenylacetylene Urea Derivative in Clinical Trials for the Treatment of Relapsed/Refractory FLT3-ITD+ Acute Myeloid Leukemia” (J Med Chem, 2025).

Columns and labels:
[1] = Oral bioavailability in rat plasma at 5 mg/kg measured up to 24 hrs by LC-MS/MS analysis; assay type: ADME, organism-based
[2] = Volume of distribution at steady state in monkey plasma at 1 mg/kg, iv measured up to 24 hrs by LC-MS/MS analysis; assay type: ADME, organism-based, Macaca mulatta; conditions: rhesus monkey, read-out: Vdss
[3] = Half life in rat plasma at 5 mg/kg, po measured up to 24 hrs by LC-MS/MS analysis; assay type: ADME, organism-based
[4] = Half life in monkey plasma at 1 mg/kg, iv measured up to 24 hrs by LC-MS/MS analysis; assay type: ADME, organism-based, Macaca mulatta; conditions: rhesus monkey
[5] = test system: SK-OV-3; assay: cells; conditions: Homo sapiens, SK-OV-3, 72 h
Description: Antiproliferative activity against human SK-OV-3 cells assessed as inhibition of cell growth incubated for 72 hrs by celltiter-glo luminescent cell viability assay

[6] = target: Proto-oncogene tyrosine-protein kinase receptor Ret (Homo sapiens, UniProt P07949, Y791F); assay: Inhibition of human RET Y791F mutant by biochemical kinase binding assay
[7] = test system: BaF3; assay: Antiproliferative activity against mouse BaF3 cells harbouring FLT3-D835Y mutant assessed as inhibition of cell growth incubated for 72 hrs by celltiter-glo luminescent cell viability assay; assay type: functional, cell-based; conditions: BaF3, 72 h
[8] = Oral bioavailability in mouse plasma at 10 mg/kg measured up to 24 hrs by LC-MS/MS analysis; assay type: ADME, organism-based
[9] = test system: DU-145; assay: cells; conditions: Homo sapiens, DU-145, 72 h
Description: Antiproliferative activity against human DU-145 cells assessed as inhibition of cell growth incubated for 72 hrs by celltiter-glo luminescent cell viability assay

[10] = AUClast in rat plasma at 5 mg/kg, po measured up to 24 hrs by LC-MS/MS analysis; assay type: ADME, organism-based
[11] = test system: MCF7; assay: cells; conditions: Homo sapiens, MCF7, 72 h
Description: Antiproliferative activity against human MCF7 cells assessed as inhibition of cell growth incubated for 72 hrs by celltiter-glo luminescent cell viability assay

[12] = Cmax in dog plasma at 5 mg/kg, po measured up to 24 hrs by LC-MS/MS analysis; assay type: ADME, organism-based, Canis lupus familiaris
[13] = Cmax in monkey plasma at 1 mg/kg, iv measured up to 24 hrs by LC-MS/MS analysis; assay type: ADME, organism-based, Macaca mulatta; conditions: rhesus monkey
[14] = target: Mast/stem cell growth factor receptor Kit (Homo sapiens, UniProt P10721, Y823D); assay: Inhibition of human KIT Y823D mutant by biochemical kinase binding assay
[15] = Tmax in dog plasma at 1 mg/kg, iv measured up to 24 hrs by LC-MS/MS analysis; assay type: ADME, organism-based, Canis lupus familiaris
[16] = test system: BaF3; assay: Antiproliferative activity against mouse BaF3 cells harbouring FLT3-ITD-Y842R mutant assessed as inhibition of cell growth incubated for 72 hrs by celltiter-glo luminescent cell viability assay; assay type: functional, cell-based; conditions: BaF3, 72 h
[17] = test system: 786-0; assay: cells; conditions: Homo sapiens, 786-0, 72 h
Description: Antiproliferative activity against human 786-0 cells assessed as inhibition of cell growth incubated for 72 hrs by celltiter-glo luminescent cell viability assay

[18] = AUC (0 to t) in NOD/SCID mouse plasma xenografted with human MV4-11 cells at 0.5 mg/kg, po measured up to 24 hrs by LC-MS/MS analysis; assay type: ADME, organism-based
[19] = test system: BaF3; assay: Antiproliferative activity against mouse BaF3 cells harbouring FLT3-ITD-Y842H mutant assessed as inhibition of cell growth incubated for 72 hrs by celltiter-glo luminescent cell viability assay; assay type: functional, cell-based; conditions: BaF3, 72 h
[20] = target: Proto-oncogene tyrosine-protein kinase receptor Ret (Homo sapiens, UniProt P07949); assay: Inhibition of human RET by biochemical kinase binding assay
[21] = Tmax in NOD/SCID mouse plasma xenografted with human MV4-11 cells at […], po measured up to 24 hrs by LC-MS/MS analysis; assay type: ADME, organism-based; conditions: dose 1.5 mg/kg
[22] = Antitumor activity against human […] cells harbouring FLT3-ITD xenografted in NOD/SCID mouse model assessed as tumor regression rate at 20 mg/kg/day, po measured for 8 days by caliper analysis relative to control; assay type: functional, MV4-11; conditions: time 8 day
[23] = test system: BaF3; assay: Antiproliferative activity against mouse BaF3 cells harbouring FLT3-ITD-F691L mutant assessed as inhibition of cell growth incubated for 72 hrs by celltiter-glo luminescent cell viability assay; assay type: functional, cell-based; conditions: BaF3, 72 h
[24] = Tmax in NOD/SCID mouse plasma xenografted with human MV4-11 cells at 0.5 mg/kg, po measured up to 24 hrs by LC-MS/MS analysis; assay type: ADME, organism-based
[25] = Clearance in dog plasma at 1 mg/kg, iv measured up to 24 hrs by LC-MS/MS analysis; assay type: ADME, organism-based, Canis lupus familiaris
[26] = test system: BaF3; assay: cells; conditions: Mus musculus, BaF3, 72 h
[27] = Tmax in dog plasma at 5 mg/kg, po measured up to 24 hrs by LC-MS/MS analysis; assay type: ADME, organism-based, Canis lupus familiaris
[28] = Tmax in NOD/SCID mouse tumor xenografted with human MV4-11 cells at 4.5 mg/kg, po measured up to 24 hrs by LC-MS/MS analysis; assay type: ADME, organism-based, Neoplasm
[29] = Toxicity in NOD/SCID mouse assessed as effect on body weight at 20 mg/kg/day, po measured for 7 days; assay type: organism-based; conditions: in vivo, 168 h, time 7 day
[30] = Toxicity in NOD/SCID mouse assessed as effect on body weight loss at 0.5 to 4.5 mg/kg/day, po administered for 21 days and measured for 31 days post dose; assay type: organism-based; conditions: in vivo, 504 h, dose 0.5-4.5 mg/kg/day, time 21 day
[31] = test system: BaF3; assay: cells; conditions: Mus musculus, BaF3, 72 h; remark: listed apart in the source
[32] = Cmax in NOD/SCID mouse tumor xenografted with human MV4-11 cells at 0.5 mg/kg, po measured up to 24 hrs by LC-MS/MS analysis; assay type: ADME, organism-based, Neoplasm
[33] = AUC (0 to t) in NOD/SCID mouse tumor xenografted with human MV4-11 cells at 4.5 mg/kg, po measured up to 24 hrs by LC-MS/MS analysis; assay type: ADME, organism-based, Neoplasm
[34] = test system: K562; assay: cells; conditions: Homo sapiens, K562, 72 h
Description: Antiproliferative activity against human K562 cells assessed as inhibition of cell growth incubated for 72 hrs by celltiter-glo luminescent cell viability assay

[35] = test system: MOLM-13; assay: Antitumor activity against human MOLM-13 cells xenografted in NOD/SCID mouse model assessed as tumor growth inhibition at 0.5 mg/kg/day, po by caliper analysis relative to control; assay type: functional; conditions: read-out: TGI
[36] = Half life in NOD/SCID mouse tumor xenografted with human MV4-11 cells at 0.5 mg/kg, po measured up to 24 hrs by LC-MS/MS analysis; assay type: ADME, organism-based, Neoplasm
[37] = AUC (0 to t) in NOD/SCID mouse plasma xenografted with human MV4-11 cells at […], po measured up to 24 hrs by LC-MS/MS analysis; assay type: ADME, organism-based; conditions: dose 1.5 mg/kg
[38] = test system: Receptor-type tyrosine-protein kinase FLT3 (Homo sapiens), P36888 [UNDEFINED MUTATION]; assay: Inhibition of FLT3 in human MV4-11 cells harbouring FLT3-ITD mutant assessed as inhibition of AKT phosphorylation level measured after 2 hrs by Western blot analysis; assay type: cell-based; conditions: dose 1-1000 nM
[39] = test system: SW-620; assay: cells; conditions: Homo sapiens, SW-620, 72 h
Description: Antiproliferative activity against human SW620 cells assessed as inhibition of cell growth incubated for 72 hrs by celltiter-glo luminescent cell viability assay

[40] = test system: U-87 MG; assay: cells; conditions: Homo sapiens, 72 h
Description: Antiproliferative activity against human U-87 MG cells assessed as inhibition of cell growth incubated for 72 hrs by celltiter-glo luminescent cell viability assay

[41] = Tmax in NOD/SCID mouse tumor xenografted with human MV4-11 cells at 0.5 mg/kg, po measured up to 24 hrs by LC-MS/MS analysis; assay type: ADME, organism-based, Neoplasm

Chain of Proto-oncogene tyrosine-protein kinase receptor Ret (Homo sapiens, UniProt P07949, Y791F) (P07949 29-1114 Y791F limits assumed): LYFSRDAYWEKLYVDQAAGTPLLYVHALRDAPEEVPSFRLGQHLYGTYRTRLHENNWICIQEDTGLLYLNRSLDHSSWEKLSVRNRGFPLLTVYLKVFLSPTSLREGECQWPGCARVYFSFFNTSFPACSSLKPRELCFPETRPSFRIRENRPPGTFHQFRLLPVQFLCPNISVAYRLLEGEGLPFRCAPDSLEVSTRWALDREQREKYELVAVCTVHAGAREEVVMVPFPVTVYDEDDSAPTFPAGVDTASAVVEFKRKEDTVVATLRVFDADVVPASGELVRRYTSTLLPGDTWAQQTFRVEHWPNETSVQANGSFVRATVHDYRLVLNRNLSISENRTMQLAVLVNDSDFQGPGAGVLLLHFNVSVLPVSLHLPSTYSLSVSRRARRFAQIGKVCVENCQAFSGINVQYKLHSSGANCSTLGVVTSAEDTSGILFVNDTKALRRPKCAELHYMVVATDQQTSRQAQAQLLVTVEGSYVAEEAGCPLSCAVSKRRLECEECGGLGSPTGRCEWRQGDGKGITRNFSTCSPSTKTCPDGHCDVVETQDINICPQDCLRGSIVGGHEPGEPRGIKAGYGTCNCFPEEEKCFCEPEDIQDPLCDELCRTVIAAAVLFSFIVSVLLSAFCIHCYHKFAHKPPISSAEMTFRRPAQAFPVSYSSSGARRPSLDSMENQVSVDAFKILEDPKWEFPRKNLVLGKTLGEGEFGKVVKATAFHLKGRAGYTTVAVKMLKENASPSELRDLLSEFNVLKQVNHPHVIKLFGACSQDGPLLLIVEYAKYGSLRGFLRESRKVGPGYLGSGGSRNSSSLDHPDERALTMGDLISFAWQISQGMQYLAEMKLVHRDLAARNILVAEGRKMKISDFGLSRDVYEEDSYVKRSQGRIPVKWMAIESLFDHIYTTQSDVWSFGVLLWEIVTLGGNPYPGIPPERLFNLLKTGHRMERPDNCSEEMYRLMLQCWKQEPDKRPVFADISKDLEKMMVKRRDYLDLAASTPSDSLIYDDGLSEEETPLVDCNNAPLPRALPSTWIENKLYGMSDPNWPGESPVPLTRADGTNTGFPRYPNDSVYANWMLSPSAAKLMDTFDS
Chain of Mast/stem cell growth factor receptor Kit (P10721 26-976 Y823D limits assumed): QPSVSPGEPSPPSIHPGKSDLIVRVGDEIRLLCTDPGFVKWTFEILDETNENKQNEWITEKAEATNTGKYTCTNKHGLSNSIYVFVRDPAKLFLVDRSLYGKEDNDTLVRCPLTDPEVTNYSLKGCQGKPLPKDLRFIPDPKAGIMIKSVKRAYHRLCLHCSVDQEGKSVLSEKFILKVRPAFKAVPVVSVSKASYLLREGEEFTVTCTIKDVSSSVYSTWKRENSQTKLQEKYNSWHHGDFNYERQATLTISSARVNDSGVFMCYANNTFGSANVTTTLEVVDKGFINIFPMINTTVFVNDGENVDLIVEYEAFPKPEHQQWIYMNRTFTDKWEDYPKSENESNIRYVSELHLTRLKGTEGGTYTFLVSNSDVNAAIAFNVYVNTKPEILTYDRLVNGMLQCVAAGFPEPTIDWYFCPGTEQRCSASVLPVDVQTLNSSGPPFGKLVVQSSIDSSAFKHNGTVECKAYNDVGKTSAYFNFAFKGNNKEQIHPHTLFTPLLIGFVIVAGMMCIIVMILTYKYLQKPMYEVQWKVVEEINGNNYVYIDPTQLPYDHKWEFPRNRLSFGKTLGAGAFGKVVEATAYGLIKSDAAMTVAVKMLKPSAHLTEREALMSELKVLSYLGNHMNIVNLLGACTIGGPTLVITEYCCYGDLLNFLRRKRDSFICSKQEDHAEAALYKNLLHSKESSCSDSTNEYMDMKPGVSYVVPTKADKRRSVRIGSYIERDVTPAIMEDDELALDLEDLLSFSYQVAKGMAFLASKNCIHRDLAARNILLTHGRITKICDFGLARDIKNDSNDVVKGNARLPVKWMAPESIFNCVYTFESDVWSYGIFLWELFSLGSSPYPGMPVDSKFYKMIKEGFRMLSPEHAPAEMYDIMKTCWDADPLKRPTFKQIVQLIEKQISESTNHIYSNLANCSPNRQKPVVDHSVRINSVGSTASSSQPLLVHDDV
Chain of Proto-oncogene tyrosine-protein kinase receptor Ret (Homo sapiens, UniProt P07949) (P07949 whole entry): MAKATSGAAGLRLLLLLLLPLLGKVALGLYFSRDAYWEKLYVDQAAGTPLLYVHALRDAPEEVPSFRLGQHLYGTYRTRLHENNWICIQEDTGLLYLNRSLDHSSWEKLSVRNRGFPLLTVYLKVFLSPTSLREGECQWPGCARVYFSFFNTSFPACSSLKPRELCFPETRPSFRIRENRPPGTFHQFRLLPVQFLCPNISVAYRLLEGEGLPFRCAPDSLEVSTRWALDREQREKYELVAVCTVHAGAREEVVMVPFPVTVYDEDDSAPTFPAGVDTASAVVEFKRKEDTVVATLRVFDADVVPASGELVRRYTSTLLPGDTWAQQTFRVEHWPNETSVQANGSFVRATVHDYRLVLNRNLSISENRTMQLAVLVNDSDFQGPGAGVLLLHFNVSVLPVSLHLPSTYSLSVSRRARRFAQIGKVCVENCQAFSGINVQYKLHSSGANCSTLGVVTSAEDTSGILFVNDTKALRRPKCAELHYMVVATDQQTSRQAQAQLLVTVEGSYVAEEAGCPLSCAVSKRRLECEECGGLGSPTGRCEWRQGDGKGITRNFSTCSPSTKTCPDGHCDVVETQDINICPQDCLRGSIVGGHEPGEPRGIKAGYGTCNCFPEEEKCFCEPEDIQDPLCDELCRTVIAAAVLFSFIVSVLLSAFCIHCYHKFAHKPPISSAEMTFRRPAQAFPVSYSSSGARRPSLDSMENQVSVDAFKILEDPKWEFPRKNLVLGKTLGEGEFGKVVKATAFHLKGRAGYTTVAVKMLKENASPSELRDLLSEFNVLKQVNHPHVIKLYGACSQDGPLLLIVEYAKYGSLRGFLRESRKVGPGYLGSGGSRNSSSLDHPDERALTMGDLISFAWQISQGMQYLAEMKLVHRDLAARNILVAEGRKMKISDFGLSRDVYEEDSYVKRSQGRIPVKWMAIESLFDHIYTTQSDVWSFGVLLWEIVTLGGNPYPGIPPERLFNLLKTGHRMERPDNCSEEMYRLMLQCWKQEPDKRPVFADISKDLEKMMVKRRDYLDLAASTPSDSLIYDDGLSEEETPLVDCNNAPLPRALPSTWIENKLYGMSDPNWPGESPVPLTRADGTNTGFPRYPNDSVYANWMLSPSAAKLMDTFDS
Chain of Receptor-type tyrosine-protein kinase FLT3 (Homo sapiens), P36888 [UNDEFINED MUTATION] (P36888 whole entry, looked up, change not shown): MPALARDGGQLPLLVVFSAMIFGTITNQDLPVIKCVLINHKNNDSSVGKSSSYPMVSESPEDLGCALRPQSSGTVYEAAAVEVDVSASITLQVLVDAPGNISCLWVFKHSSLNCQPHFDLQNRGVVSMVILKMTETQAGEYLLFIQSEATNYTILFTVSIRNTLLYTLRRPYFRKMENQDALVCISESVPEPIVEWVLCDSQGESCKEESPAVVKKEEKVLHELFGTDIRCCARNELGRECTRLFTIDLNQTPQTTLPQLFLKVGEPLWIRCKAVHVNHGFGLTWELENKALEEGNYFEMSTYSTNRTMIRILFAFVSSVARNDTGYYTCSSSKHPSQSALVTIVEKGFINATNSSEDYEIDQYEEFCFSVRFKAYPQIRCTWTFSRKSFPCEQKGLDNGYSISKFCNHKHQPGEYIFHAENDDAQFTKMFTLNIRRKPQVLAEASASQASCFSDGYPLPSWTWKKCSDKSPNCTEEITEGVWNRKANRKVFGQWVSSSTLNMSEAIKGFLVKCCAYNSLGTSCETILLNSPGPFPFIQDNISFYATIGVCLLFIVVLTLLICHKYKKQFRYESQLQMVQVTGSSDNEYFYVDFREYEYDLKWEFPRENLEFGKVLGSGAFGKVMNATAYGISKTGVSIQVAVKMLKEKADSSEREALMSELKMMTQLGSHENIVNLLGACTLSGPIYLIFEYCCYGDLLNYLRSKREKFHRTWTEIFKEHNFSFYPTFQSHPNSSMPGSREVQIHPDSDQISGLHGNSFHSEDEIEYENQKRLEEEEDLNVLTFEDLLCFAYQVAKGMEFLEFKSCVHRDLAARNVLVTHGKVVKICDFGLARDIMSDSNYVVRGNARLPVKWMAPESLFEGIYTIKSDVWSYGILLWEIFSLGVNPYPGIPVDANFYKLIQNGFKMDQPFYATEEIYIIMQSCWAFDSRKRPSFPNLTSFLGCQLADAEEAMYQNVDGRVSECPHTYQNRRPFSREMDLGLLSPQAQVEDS

**Q.** Which bioavailability [1] does the source give for `CC(C)(C)c1cc(NC(=O)Nc2ccc(C#Cc3ccc(OCCCN4CCOCC4)cc3)cc2)no1` here?
**A.** 67.9%

**Q.** And the Vd [2]?
**A.** 0.996 L/kg

**Q.** And the half-life [3]?
**A.** 267 min

**Q.** And the half-life [4]?
**A.** 786 min

**Q.** And the IC50 [5]?
**A.** > 10 µM

**Q.** And the IC50 [6]?
**A.** 119 nM

**Q.** And the IC50 [7]?
**A.** 5.4 nM

**Q.** What about the bioavailability [8] of the same compound?
**A.** 50.3%

**Q.** And the IC50 [9]?
**A.** > 10 µM

**Q.** What about the AUC(0-t) at 24 h [10] of the same compound?
**A.** 8310 ng·h/mL

**Q.** And the IC50 [11]?
**A.** > 10 µM

**Q.** And the Cmax [12]?
**A.** 520 ng/mL

**Q.** What about the Cmax [13] of the same compound?
**A.** 4720 ng/mL

**Q.** And the IC50 [14]?
**A.** 283 nM

**Q.** And the Tmax [15]?
**A.** 4.98 min

**Q.** What about the IC50 [16] of the same compound?
**A.** 21.8 nM

**Q.** And the IC50 [17]?
**A.** 3.4 µM

**Q.** And the AUC(0-t) at 24 h [18]?
**A.** 58.9 ng·h/mL

**Q.** What about the IC50 [19] of the same compound?
**A.** 38 nM

**Q.** What about the IC50 [20] of the same compound?
**A.** 110 nM

**Q.** What about the Tmax at 24 h [21] of the same compound?
**A.** 1 h

**Q.** And the Activity [22]?
**A.** 85.4%

**Q.** And the IC50 [23]?
**A.** 154 nM

**Q.** And the Tmax [24]?
**A.** 1 h

**Q.** And the clearance [25]?
**A.** 11.3 mL/min/kg

**Q.** What about the IC50 [26] of the same compound?
**A.** 5.8 nM

**Q.** What about the Tmax [27] of the same compound?
**A.** 1.67 h

**Q.** What about the Tmax [28] of the same compound?
**A.** 6 h

**Q.** What about the Activity [29] of the same compound?
**A.** Non-toxic

**Q.** What about the Activity [30] of the same compound?
**A.** Non-toxic

**Q.** What about the IC50 [31] of the same compound?
**A.** 4.1 nM

**Q.** And the Cmax [32]?
**A.** 23.3 ng/mL

**Q.** And the AUC(0-t) at 24 h [33]?
**A.** 4700 ng·h/mL

**Q.** And the IC50 [34]?
**A.** > 10 µM

**Q.** And the inhibition in vivo at 0.5 mg/kg/day [35]?
**A.** 39%

**Q.** And the half-life [36]?
**A.** 678 min

**Q.** What about the AUC(0-t) at 24 h [37] of the same compound?
**A.** 208 ng·h/mL

**Q.** What about the inhibition [38] of the same compound?
**A.** Dose-dependent-effect

**Q.** What about the IC50 [39] of the same compound?
**A.** > 10 µM

**Q.** What about the IC50 [40] of the same compound?
**A.** > 10 µM

**Q.** And the Tmax [41]?
**A.** 3 h
